Reference: patent US20180078615A1, “USE OF CCL2 TO INHIBIT ABNORMAL UTERINE BLEEDING” (UNIVERSITY OF SOUTH FLORIDA, priority 2015, published 2018)

What was measured:
[1] = test system: VSMCs; experiment: Whole genome microarray analysis (Illumina HumanHT-12 v4) of cultured VSMCs treated with progestins; assay type: cell-based, human; details: VSMCs treated by MPA
Text: Cultured VSMCs (n=3) treated with control medium or medium containing medroxyprogesterone acetate (MPA, 10^−7 M), or etonogestrel (ETO, 10^−7 M) were processed for whole genome analyses using Illumina Human microarray kit. After qRT-PCR confirmation of several up and down regulated genes from microarray data, Ingenuity Pathway Analysis (IPA) determined relevant upstream signaling of LAPC altered gene expression. To investigate the role of genes and relevant signaling molecules identified by IPA, VSMCs (n=3) treated with MPA or ETO±1 or 10 ng/ml recombinant CCL2 (rCCL2)±STAT1 inhibitor, 5′-methyl-thioadenosine (MTA, 100 μM) were analyzed by BrdU incorporation proliferation, TUNEL based ELISA apoptosis and Transwell insert migration assays.
VSMCs were thawed and cultured in medium 231 (M231; Life Technologies) with smooth muscle growth supplement (5% FBS; 2 ng/mL human basic fibroblast growth factor, 0.5 ng/mL human epidermal growth factor, 5 ng/mL heparin, 0.2 μg/mL insulin and 5 μg/mL BSA; Life Technologies) with 100 U/mL penicillin, 100 μg/mL streptomycin, 0.25 μg/mL fungizone. Confluent VSMCs were washed twice with 1×PBS to remove residual serum, passaged in 96-well or 6-well plates and incubated in parallel in M231 with 1% charcoal striped FBS with 0.1% ethanol (vehicle, control) or 10^−7 M MPA (Sigma-Aldrich) or 10^−7 M ETO (Organon) or 10^−7 M P4 (Sigma-Aldrich) for 15 min, 6, 48, and 72 h. VSMCs were then washed with ice-cold PBS and stored at −80° C. for further RNA and protein analyses.
Total RNA was isolated using Qiagen miRNeasy Mini Kit (Qiagen) and RNeasy MinElute Cleanup Kit (Qiagen). The quality of isolated RNAs was confirmed using an Agilent 2100 Bioanalyzer. Microarray analysis was limited to those specimens in which RNA Integrity Number exceeded 8. Microarray processes were performed in the Keck Biotechnology Resource Laboratory at Yale University (New Haven, Conn.) using Illumina Human HT-12 v4 BeadChip (Illumina). Raw data without normalization were analyzed by GeneSpring GX12.5 software (Agilent Technologies-Silicon Genetics). Normalization was performed as described (35). Genes with a fold-change >1.25 and a P value<0.05 were considered differentially expressed. Ingenuity Pathway Analysis (IPA) software (Qiagen) explored molecular and biological networks related to differentially expressed genes.

[2] = test system: VSMCs; experiment: Transwell insert migration assay; assay type: cell-based, human; details: 12-h incubation, 10^−7 M; control 48.4%
Procedure: VSMCs (75,000 cells/200 μL) were suspended in M231 containing 1% charcoal striped FBS and either 0.1% ethanol (vehicle control) or the corresponding steroids and seeded onto insert wells (transwell filter with 12-μm pores; EMD Millipore). The inserts were then placed in 24-well plates containing 500 μL M231 with 1% charcoal striped FBS. After 12 h, cells remaining on the upper surface of the filter were removed with a cotton swab. Migrated cells were trypsinized, centrifuged, and resuspended in 200 μL of M231 medium. The cell suspensions were mixed with 200 μL 10% ethanol containing 0.4% Trypan blue dye and the live cell number was counted by Countess Automated Cell Counter (Invitrogen). See further details in SI Materials and Methods.
Cultured VSMCs were grown in T-75 cell culture flasks in M231 (Life Technologies) with smooth muscle growth supplement (Life Technologies) with 100 U/mL penicillin, 100 μg/mL streptomycin, 0.25 μg/mL fungizone. Confluent VSMCs were washed twice with 1×PBS to remove residual serum, and then trypsinized, resuspended (75,000 cells per 200 μL per well) in M231 with 1% charcoal striped FBS with 0.1% ethanol (vehicle, control), 10^−7 M MPA (Sigma-Aldrich), 10^−7 M ETO (Organon), or 10^−7 M P4 (Sigma-Aldrich)±rCCL2 (R&D Systems) and seeded on insert wells (transwell filter with 12-μm pores; EMD Millipore), which were then placed in 24-well plates containing 500 μL M231 with 1% charcoal striped FBS. After 12 h, cells remaining on the upper surface of the filter were removed with a cotton swab. Migrated cells attached to the lower surface of each insert or to the surface of lower wells were collected by trypsinization, followed by centrifugation and resuspension in 200 μL of M231 medium. The cell suspensions were mixed with 200 μL 10% ethanol containing 0.4% Trypan blue dye (selectively stains only dead cells blue, whereas live cells with intact cell membranes remain unstained) for 5 min. A mixture of 100 μL M231 and 100 μL 10% ethanol containing 0.4% Trypan blue dye was used as a negative control. To detect live cell numbers, 10 μL of final cell/Trypan blue dye suspension from each treatment condition was pipetted into Countess Cell Counting Chamber Slide and counted by using Countess Automated Cell Counter (Invitrogen). The counting procedure was performed in duplicate.

Compound: CC(=O)O[C@]1(C(C)=O)CC[C@H]2[C@@H]3C[C@H](C)C4=CC(=O)CC[C@]4(C)[C@H]3CC[C@@]21C [MPA, medroxyprogesterone acetate]
- Fold-change, ABI gene family, member 3 (NESH) binding protein (ABI3BP) [1]: −2.045
- Fold-change, Actin, γ 2, smooth muscle, enteric (ACTG2) [1]: 2.761
- Fold-change, Alcohol dehydrogenase 1A (class I), α polypeptide (ADH1A) [1]: 2.49
- Fold-change, Bradykinin receptor B1 (BDKRB1) [1]: −2.041
- Fold-change, Chemokine (C-C motif) ligand 2 (CCL2) [1]: −4.123
- Fold-change, Collectin subfamily member 12 (COLEC12) [1]: −2.177
- Fold-change, Complement factor B (CFB) [1]: −3.17
- Fold-change, Complement factor D (adipsin) (CFD) [1]: 2.794
- Fold-change, Cysteine-rich secretory protein LCCL domain containing 2, (CRISPLD2) [1]: 3.721
- Fold-change, DNA-damage regulated autophagy modulator 1 (DRAM1) [1]: −2.149
- Fold-change, Decorin, transcript variant A2 (DiCN) [1]: 2.515
- Fold-change, EF-hand domain family, member D1 (EFHD1) [1]: 2.294
- Fold-change, Fibrillin 2 (FBN2) [1]: 2.642
- Fold-change, Filaggrin (FLG) [1]: −2.306
- Fold-change, Glutathione peroxidase 3 (plasma) (GPX3) [1]: 2.827
- Fold-change, H19, imprinted maternally expressed transcript noncoding RNA (H19) [1]: 5.441
- Fold-change, Hypothetical protein FLJ40504 (FLJ40504) [1]: −2.331
- Fold-change, Indolethylamine N-methyltransferase (INMT) [1]: 2.187
- Fold-change, Insulin-like growth factor binding protein 2, 36 kDa (IGFBP2) [1]: 2.367
- Fold-change, Interleukin 1, β (IL1B) [1]: −2.325
- Fold-change, LY6/PLAUR domain containing 1, transcript variant 1 (LYPD1) [1]: −2.21
- Fold-change, Latexin (LXN) [1]: −2.939
- Fold-change, Leptin (obesity homolog, mouse) (LEP) [1]: 4.042
- Fold-change, Matrix Gla protein, transcript variant 1 (MGP) [1]: 3.615
- Fold-change, Matrix Gla protein, transcript variant 2 (MGP) [1]: 3.221
- Fold-change, Natriuretic peptide precursor B (NPPB) [1]: −2.371
- Fold-change, PREDICTED: keratin 18 pseudogene 13 (KRT18P13) [1]: −2.209
- Fold-change, PREDICTED: similar to LYPDC1 protein (LOC100134073) [1]: −2.401
- Fold-change, Pleckstrin homology-like domain, family A, member 1 (PHLDA1) [1]: −2.17
- Fold-change, Potassium voltage-gated channel, shaker-related subfamily, 0 member 1, transcript variant2 (KCNAB1) [1]: −2.055
- Fold-change, Prostaglandin-endoperoxide synthase 1, transcript variant 2 (PTGS1) [1]: 2.437
- Fold-change, Retinoic acid receptor responder (tazarotene induced) 1, transcript variant 1, (RARRES1) [1]: −4.061
- Fold-change, Retinoic acid receptor responder (tazarotene induced) 1, transcript variant 2, (RARRES1) [1]: −2.994
- Fold-change, Superoxide dismutase 2, mitochondrial, transcript variant 2, (SOD2) [1]: −2.208
- Fold-change, Sushi domain containing 2 (SUSD2) [1]: 2.901
- Fold-change, Transmembrane protein 119 (TMEM119) [1]: 2.258
- Fold-change, UDP-N-acetyl-alpha-D-galactosamine:polypeptide N-acetylgalactosaminyltransferase 12 (GALNT12) [1]: −2
- Fold-change, Wingless-type MMTV integration site family, member 5A (WNT5A) [1]: 2.218
- Fold-change, Collagen, type VIII, α 1, transcript variant 2 (COL8A1) ([1]; table entry 11): 2.628
- Fold-change, Collagen, type VIII, alpha 1, transcript variant 2 (COL8A1) ([1]; table entry 14): 2.439
- migration rate [2]: 18.7%
